From the supplement of paper PMC11619387
Converted amounts (≈) assume the structure as drawn.

Columns and labels:
[1] = system: Pseudomonas aeruginosa PAO1-Xen41; assay: Emax, maximal drug effect on net growth rate (fitted lower asymptote) (per hour (slope of log luminescence)); higher = weaker maximal killing (less negative)
Protocol: (§1)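 Time-kill assays of bioluminescent P. aeruginosa PAO1-Xen41 (start ~5e6 CFU/mL) in 96-well plates at 37 °C, 150 rpm. Luminescence was read hourly for 20 h in cation-adjusted Mueller-Hinton broth, either non-conditioned (MH broth with or without supplements) or conditioned by one of 13 CF-associated species, then filter-sterilised and nutrient-replenished. Growth/kill rates came from log-linear regression of the exponential phase at 9-10 antibiotic concentrations, and Hill (Emax) models were fitted with drc for each replicate.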

[2] = system: Pseudomonas aeruginosa PAO1-Xen41; assay: Hill coefficient of concentration-effect curve (unitless); higher = steeper concentration-effect curve
Protocol: as §1

[3] = system: Pseudomonas aeruginosa PAO1-Xen41; assay: EC50 of growth/kill rate concentration-effect curve
Protocol: as §1

C[C@@H]1O[C@@H]1P(=O)(O)O [fosfomycin]
Conditions | EC50, [3] [µg/mL] | Emax, [1] | Hill coefficient, [2]
medium (conditioned by secondary species or non-conditioned control): A. baumannii | 149 (≈ 1080 µM) | -0.132 | 2.21
medium (conditioned by secondary species or non-conditioned control): A. fumigatus | 16.6 (≈ 120 µM) | -0.117 | 1.48
medium (conditioned by secondary species or non-conditioned control): A. xylosoxidans | 201 (≈ 1450 µM) | -0.189 | 2.09
medium (conditioned by secondary species or non-conditioned control): B. cepacia | 81.7 (≈ 592 µM) | -0.0776 | 3.68
medium (conditioned by secondary species or non-conditioned control): C. albicans | 10.6 (≈ 77 µM) | -0.134 | 1.72
medium (conditioned by secondary species or non-conditioned control): H. influenzae | 72.3 (≈ 524 µM) | -0.354 | 1.57
medium (conditioned by secondary species or non-conditioned control): M. abcessus | 43.8 (≈ 318 µM) | -0.177 | 2.3
medium (conditioned by secondary species or non-conditioned control): M. avium | 34.4 (≈ 249 µM) | -0.196 | 1.9
medium (conditioned by secondary species or non-conditioned control): M. catarrhalis | 66.6 (≈ 483 µM) | -0.126 | 2.47
medium (conditioned by secondary species or non-conditioned control): MH broth | 22.4 (≈ 163 µM) | -0.173 | 2.99
medium (conditioned by secondary species or non-conditioned control): MH broth + ADC | 23.6 | -0.194 | 2.25
medium (conditioned by secondary species or non-conditioned control): MH broth + LHB + NAD | 47 | -0.233 | 1.88
medium (conditioned by secondary species or non-conditioned control): MH broth + glucose | 17.7 | -0.136 | 1.47
medium (conditioned by secondary species or non-conditioned control): R. mannitolilytica | 65.4 (≈ 473 µM) | -0.111 | 3.11
medium (conditioned by secondary species or non-conditioned control): S. aureus | 47.35 (≈ 343 µM) | -0.122 | 3.29
medium (conditioned by secondary species or non-conditioned control): S. maltophilia | 81.9 (≈ 593 µM) | -0.102 | 2.83
medium (conditioned by secondary species or non-conditioned control): S. pneumoniae | 45.9 (≈ 332 µM) | -0.276 | 1.54

C[C@@H](O)[C@H]1C(=O)N2C(C(=O)O)=C(S[C@@H]3CN[C@H](C(=O)N(C)C)C3)[C@H](C)[C@H]12 [meropenem]
Conditions | EC50, [3] [µg/mL] | Emax, [1] | Hill coefficient, [2]
medium (conditioned by secondary species or non-conditioned control): A. baumannii | 2.68 (≈ 6.99 µM) | -0.0771 | 6.64
medium (conditioned by secondary species or non-conditioned control): A. fumigatus | 0.389 (≈ 1.01 µM) | -0.093 | 7.42
medium (conditioned by secondary species or non-conditioned control): A. xylosoxidans | 1.25 (≈ 3.26 µM) | -0.0831 | 4.28
medium (conditioned by secondary species or non-conditioned control): B. cepacia | 0.916 (≈ 2.39 µM) | -0.0593 | 12.1
medium (conditioned by secondary species or non-conditioned control): C. albicans | 0.784 (≈ 2.04 µM) | -0.12 | 3.15
medium (conditioned by secondary species or non-conditioned control): H. influenzae | 0.6259 (≈ 1.63 µM) | -0.172 | 2.15
medium (conditioned by secondary species or non-conditioned control): M. abcessus | 0.609 (≈ 1.59 µM) | -0.0816 | 5.75
medium (conditioned by secondary species or non-conditioned control): M. avium | 0.337 (≈ 0.878 µM) | -0.0509 | 7.81
medium (conditioned by secondary species or non-conditioned control): M. catarrhalis | 1.91 (≈ 4.99 µM) | -0.0746 | 6.15
medium (conditioned by secondary species or non-conditioned control): MH broth | 0.612 (≈ 1.6 µM) | -0.0947 | 4.27
medium (conditioned by secondary species or non-conditioned control): MH broth + ADC | 0.2684 | -0.0675 | 15.3
medium (conditioned by secondary species or non-conditioned control): MH broth + LHB + NAD | 0.663 | -0.125 | 3.73
medium (conditioned by secondary species or non-conditioned control): MH broth + glucose | 0.628 | -0.0923 | 3
medium (conditioned by secondary species or non-conditioned control): R. mannitolilytica | 0.6203 (≈ 1.62 µM) | -0.0818 | 8.16
medium (conditioned by secondary species or non-conditioned control): S. aureus | 0.7071 (≈ 1.84 µM) | -0.0714 | 10
medium (conditioned by secondary species or non-conditioned control): S. maltophilia | 1.18 (≈ 3.07 µM) | -0.0918 | 3.29
medium (conditioned by secondary species or non-conditioned control): S. pneumoniae | 0.938 (≈ 2.45 µM) | -0.189 | 4.34

CN(C)c1ccc(O)c2c1C[C@H]1C[C@H]3[C@H](N(C)C)C(O)=C(C(N)=O)C(=O)[C@@]3(O)C(O)=C1C2=O [minocycline]
Conditions | EC50, [3] [µg/mL] | Emax, [1] | Hill coefficient, [2]
medium (conditioned by secondary species or non-conditioned control): A. baumannii | 41.5 (≈ 90.7 µM) | -0.0946 | 3.37
medium (conditioned by secondary species or non-conditioned control): A. fumigatus | 4.51 (≈ 9.87 µM) | -0.12 | 5.95
medium (conditioned by secondary species or non-conditioned control): A. xylosoxidans | 29.9 (≈ 65.4 µM) | -0.193 | 6.19
medium (conditioned by secondary species or non-conditioned control): B. cepacia | 65.8 (≈ 144 µM) | -0.464 | 1.13
medium (conditioned by secondary species or non-conditioned control): C. albicans | 7.19 (≈ 15.7 µM) | -0.223 | 5.63
medium (conditioned by secondary species or non-conditioned control): H. influenzae | 9.75 (≈ 21.3 µM) | -0.198 | 1.67
medium (conditioned by secondary species or non-conditioned control): M. abcessus | 81 (≈ 177 µM) | -0.72 | 0.784
medium (conditioned by secondary species or non-conditioned control): M. avium | 6.33 (≈ 13.8 µM) | -0.13 | 5.77
medium (conditioned by secondary species or non-conditioned control): M. catarrhalis | 21.1 (≈ 46.2 µM) | -0.0725 | 3.92
medium (conditioned by secondary species or non-conditioned control): MH broth | 18.7 (≈ 40.9 µM) | -0.41 | 1.16
medium (conditioned by secondary species or non-conditioned control): MH broth + ADC | 3.939 | -0.071 | 15
medium (conditioned by secondary species or non-conditioned control): MH broth + LHB + NAD | 8.7 | -0.184 | 1.74
medium (conditioned by secondary species or non-conditioned control): MH broth + glucose | 19.7 | -0.432 | 1.2
medium (conditioned by secondary species or non-conditioned control): R. mannitolilytica | 72.8 (≈ 159 µM) | -0.649 | 0.909
medium (conditioned by secondary species or non-conditioned control): S. aureus | 87.8 (≈ 192 µM) | -0.776 | 0.785
medium (conditioned by secondary species or non-conditioned control): S. maltophilia | 81 (≈ 177 µM) | -0.713 | 0.781
medium (conditioned by secondary species or non-conditioned control): S. pneumoniae | 4.82 (≈ 10.5 µM) | -0.0595 | 2.06

CO[C@H]1/C=C/O[C@@]2(C)Oc3c(C)c(O)c4c(O)c(c(/C=N/N5CCN(C)CC5)c(O)c4c3C2=O)NC(=O)/C(C)=C\C=C\[C@H](C)[C@H](O)[C@@H](C)[C@@H](O)[C@@H](C)[C@H](OC(C)=O)[C@@H]1C [rifampicin]
Conditions | EC50, [3] [µg/mL] | Emax, [1] | Hill coefficient, [2]
medium (conditioned by secondary species or non-conditioned control): A. baumannii | 58.4 (≈ 71 µM) | -0.428 | 2.64
medium (conditioned by secondary species or non-conditioned control): A. fumigatus | 16.6 (≈ 20.2 µM) | -0.427 | 1.865
medium (conditioned by secondary species or non-conditioned control): A. xylosoxidans | 60.8 (≈ 73.9 µM) | -0.447 | 3.63
medium (conditioned by secondary species or non-conditioned control): B. cepacia | 53.9 (≈ 65.4 µM) | -0.4437 | 4.03
medium (conditioned by secondary species or non-conditioned control): C. albicans | 26.5 (≈ 32.2 µM) | -0.543 | 2.68
medium (conditioned by secondary species or non-conditioned control): H. influenzae | 18.7 (≈ 22.7 µM) | -0.165 | 5.03
medium (conditioned by secondary species or non-conditioned control): M. abcessus | 43.2 (≈ 52.5 µM) | -0.468 | 2.15
medium (conditioned by secondary species or non-conditioned control): M. avium | 72 (≈ 87.5 µM) | -1.04 | 0.999
medium (conditioned by secondary species or non-conditioned control): M. catarrhalis | 58.7 (≈ 71.4 µM) | -0.151 | 2.74
medium (conditioned by secondary species or non-conditioned control): MH broth | 31.7 (≈ 38.5 µM) | -0.425 | 2.61
medium (conditioned by secondary species or non-conditioned control): MH broth + ADC | 83.3 | -1.1 | 0.89
medium (conditioned by secondary species or non-conditioned control): MH broth + LHB + NAD | 25.2 | -0.141 | 3.8
medium (conditioned by secondary species or non-conditioned control): MH broth + glucose | 26.7 | -0.552 | 2.46
medium (conditioned by secondary species or non-conditioned control): R. mannitolilytica | 40.4 (≈ 49 µM) | -0.4494 | 5.28
medium (conditioned by secondary species or non-conditioned control): S. aureus | 43.6 (≈ 53 µM) | -0.461 | 2.1
medium (conditioned by secondary species or non-conditioned control): S. maltophilia | 51.8 (≈ 62.9 µM) | -0.437 | 3.3
medium (conditioned by secondary species or non-conditioned control): S. pneumoniae | 20.8 (≈ 25.3 µM) | -0.142 | 4.69
